Assay results: patent publication US20020165136A1, “MHC peptides and methods of use” (Thomas Jefferson University, priority 1996, published 2002)
“Also recorded” adds a separate entry of the source. Square brackets hold non-standard residues; d marks the D form. Ends that are not written are not given here. NMeA = CN[C@@H](C)C(=O)O

Key:
C6 cells [1] = assay: In vivo apoptosis assay: peptide-pretreated C6 cells in a diffusion chamber implanted s.c. in rats; parameters: species or system rat; conditions: for % Recovery (24 hs) / ability to induce apoptosis (in words) / Percent Recovery: C6 cells; for % Recovery (24 hs): peptide at 5×10^−M, 24 hs in diffusion chamber, % of original inoculum; for ability to induce apoptosis (in words): preincubation at 10^−5 M; for Percent Recovery: 24 hours in diffusion chamber; for Recovery (%): C6 rat glioblastoma cells pre-treated with 50 μM peptide 24 hours in serum-free medium, chamber in rats 24 hours
Experimental: (§1) The test for apoptosis in vivo was based on the use of the diffusion chamber described in detail by Resnicoff, M., et al., Cancer Res. 55: 2463-2469 (1995). According to this method, the cells are placed in a diffusion chamber that allows the passage of nutrients, antigens, antibodies, etc., but not of intact cells. The sterilized chamber is loaded with cells and then inserted into the subcutaneous tissue of rats or mice; after 24 hours, (or at other times, depending on the experiment) the chamber is removed and the number of cells in the chamber is determined with a hemocytometer, and expressed as a percentage of the original inoculum. The cells are also stained with trypan blue for viability; in the experience of the inventors, surviving cells are >95% viable.
(§2) For in vivo effects, 5×10^5 cells (C6 and CaOV-3 were both used for these studies) were placed in diffusion chambers and implanted into the s.c. tissue of the animals. Once the skin was sutured, the peptides were injected s.c. next to the chambers at the indicated concentrations in a final volume of 0.2 ml. Twenty-four hours later, the chambers were removed from the animals and the cells were quantitatively recovered.
(from gp100), involved in regression of human melanoma (Kawakami et al. 1994); 2) […], recognized by melanoma-specific human CTL lines (Cox et al, 1994); and 3) […], derived from connexin 37, that induces CTL responses against murine lung carcinoma (Mandelboim, et al., 1994). For each of these peptides, a control peptide having the same amino acid composition, but in scrambled order (controls), was also tested. C6 cells were preincubated with the peptides at a concentration of 10^−5M and transferred to the diffusion chamber (see Methods and Materials). Cell number was determined after 24 hours in the diffusion chamber transplanted into the subcutaneous tissue of rats.
Two of the three peptides were selected for further studies of the effects of mutations on the ability to induce apoptosis. Several point mutations were introduced into the peptide […]. […] Mutations at tyrosine in position 1, or the two prolines in positions 4 and 6, effectively inactivated peptide no. 2. An exception to this observation was seen when the prolines were replaced by an N-methyl amino acid. Mutations at E3 or T8 had little effect, but when both residues were mutated, recovery increased to 77%.
In order to determine the minimum concentration of these peptides that still would induce apoptosis in vivo, C6 cells were preincubated with different concentrations of the […] and D-amino acid […] peptides and recovery of viable cells was determined after 24 hours in the diffusion chamber.

C6 cells [2] = assay: Protection from subsequent challenge with wild type C6 cells; format: in vivo, rat
Experimental: Synthetic peptide sequences listed above were tested at 5×10^−M on C6 cells. Tests for apoptosis and for protection from subsequent challenge with C6 cells are described herein. Point mutations are shown in bold characters.

C6 glioblastoma cells = format: in vivo, rat; parameters: dose or concentration left out as unconfirmed; conditions: C6 cells pre-treated 24 hours in serum-free medium
[3] = tested on: CaOV3 cells (human ovarian carcinoma cells); assay: Diffusion chamber assay, CaOV3 cells in mice, peptide injected s.c. next to chamber; format: in vivo, mouse; conditions: Balb/c mice, 0.2 ml of 0.05 mM peptide s.c. next to chamber, 24 hours
Experimental: as §1, §2
Human ovarian carcinoma cells CaOV3 (Resnicoff, et al. (1993)) were loaded into a diffusion chamber, and the chamber was inserted into the subcutaneous tissue of mice. The animals were then injected, also subcutaneously next to the chamber, with 0.2 ml of a 0.05 mM solution of four different peptides, and the number of cells was determined 24 hours later. […] The control peptide had no effect, and the number of cells more than doubled. CaOV3 cells also undergo apoptosis, as determined by FACS analysis.
CaOV3 cells (human ovarian carcinoma cells, 5×10^5 cells) were placed without any previous treatment into diffusion chambers that were then implanted into the subcutaneous tissue of Balb/c mice. Animals were then injected subcutaneously next to the chambers either with 0.2 ml of a 0.05 mM solution of one of the three test peptides or with 0.2 ml of a 0.05 mM solution of the control peptide.

C6 cells [4] = assay: Tumorigenesis of C6 cells in nude mice; format: in vivo; conditions: for Expected Delay: calculated from % cells recovered; for Palpable Tumors: s.c. in nude mice
Experimental: C6 cells pre-incubated with various concentrations (10^−12, 10^−10, 10^−8, and 10^−5 M) of the peptide YLRPGPVTA were injected simultaneously into nude mice and the time of appearance of subcutaneous tumors was determined. In parallel experiments, the percentage of cells killed in the diffusion chamber assay was determined. From the percentage of cells killed, the expected delay in the appearance of tumors in mice was calculated as described previously (Resnicoff, et al., Cancer Res. 55:3739 (1995)). […] The time of appearance of tumors is slightly more delayed than expected from the percentage of cells killed in 24 hours in the diffusion chamber assay, a phenomenon previously observed also with antisense oligodeoxynucleotides to the IGF-IR RNA (Resnicoff, et al., Cancer Res. 55:3739 (1995)).
A similar inhibition of tumorigenesis was observed using the D-amino acid peptide LRLTATGDLL. In this case, the peptide (all D-aa, sequence from Kawakami, et al. (1994)) was injected s.c. into nude mice (0.1 ml, at the indicated concentrations), simultaneously with C6 cells (10^5 cells in 0.1 ml) and next to them. The animals were followed for tumor development. The results were as follows: For C6 cells without peptide injection, the tumors appeared after 4 days; for a peptide injection at 10^−10 to 10^−12 M, tumors appeared after 11 days.
C6 cells were incubated with the synthetic peptide at the indicated final concentrations for 24 hours in serum-free medium before injection into the subcutaneous tissue of seven week-old male Dalb/c nude mice. Percentage recovery was determined using the diffusion chamber assay as described herein. Expected Delay is the number of days after injection before the tumors should become palpable, based on survival in vivo estimated by percentage of cells recovered. […] Three nude mice were used in each experimental condition.

C6 cells [5] = assay: FACS analysis of apoptotic cells in the diffusion chamber; parameters: species or system rat; conditions: C6 cells incubated in vivo for 90 minutes in diffusion chamber
Experimental: In order to determine that the loss of cells upon treatment with active peptides was due to the induction of apoptosis, the presence of apoptotic cells within the diffusion chamber was determined at several time intervals by FACS analysis (Sell, et al. (1995)). FIG. 1 represents a typical experiment using C6 cells. […] In both cases, the cells had been incubated in vivo for 90 minutes in a diffusion chamber as described herein. […] Similar results were obtained at several time intervals thereafter.

C6/p35 cells = assay: Diffusion chamber apoptosis test on C6 cells expressing baculovirus p35; format: in vivo, rat; conditions: untreated versus incubated with peptide
Experimental: In addition, one of the common pathways of apoptotic injury is through the ICE proteins ([…] (1996)). The activation of ICE and ICE-like proteins is inhibited by the p35 protein of baculovirus (Clem and Miller (1994)), which can also be functional in mammalian cells (Rabizadeh, et al. (1993). To determine whether the synthetic peptides caused apoptosis through the ICE pathway, a plasmid expressing the p35 protein was stably introduced into C6 cells. C6 and C6/p35 cells were then tested for apoptosis in the diffusion chambers, using the synthetic peptide […]. 2 is a composite picture showing the expression of p35 in the various cell lines, and, below each lane, the percentage of cells recovered from the diffusion chamber.

ALEPGPVTA [point mutant of …]
% Recovery (24 hs) (C6 cells [1]): 224.0%
Protection from wild type cell challenge (C6 cells [2]): no

ATVPGPELY (D-amino acids) [ATVPGPELY (D-amino acid)]
ability to induce apoptosis (in words) (C6 cells [1]; diffusion chamber): as effective as the L-amino acid sequences
% Recovery (24 hs) (C6 cells [1]): 6.0%
Protection from wild type cell challenge (C6 cells [2]): yes

GILGFVPTL [Peptide M158-66, synthetic peptide corresponding to one derived from influenza virus]
Recovery (%) (C6 glioblastoma cells): 23.4%

LLDGTATLRL [MHC Class I peptide derived from gp100, human melanoma specific antigen]
% Recovery (24 hs) (C6 cells [1]): 5.0%
Protection from wild type cell challenge (C6 cells [2]): yes

LRLTATGDLL (D-amino acids) [LRLTATGDLL (D-amino acid)]
ability to induce apoptosis (in words) (C6 cells [1]; diffusion chamber): as effective as the L-amino acid sequences
Percent Recovery (C6 cells [1]; peptide 10^−5 M): 0.5%
Percent Recovery (C6 cells [1]; peptide 10^−8 M): 3.0%
Percent Recovery (C6 cells [1]; peptide 10^−12 M): 6.6%
Percent Recovery (C6 cells [1]; peptide 10^−13 M, listed as LRLTATGDLL (D-aa)): 18.0%
% Recovery (24 hs) (C6 cells [1]): 4.9%
Protection from wild type cell challenge (C6 cells [2]): yes
Percent Recovery [3]: 6.6%
time of appearance of tumors (C6 cells [4]; peptide 0.1 ml s.c. at 10^−10 to 10^−12 M, simultaneously with and next to 10^5 C6 cells, nude mice): 11 days

SMAPGNYSV [control peptide, reference compound]
apoptotic cells by FACS analysis (C6 cells [5]): not

TLGIVCPI [HPV-16 E786-93, MHC Class I peptide derived from Human Papilloma Virus Type 16 (HPV-16) E7 protein]
Recovery (%) (C6 cells [1]): 27%

YAEPGPVTA [point mutant of …]
% Recovery (24 hs) (C6 cells [1]): 186.0%
Protection from wild type cell challenge (C6 cells [2]): no

YLAPGPVTA [point mutant of …]
% Recovery (24 hs) (C6 cells [1]): 7.4%
Protection from wild type cell challenge (C6 cells [2]): yes

YLEAGPVTA [point mutant of …]
% Recovery (24 hs) (C6 cells [1]): 224.0%
Protection from wild type cell challenge (C6 cells [2]): no

YLEPAPVTA [point mutant of …]
% Recovery (24 hs) (C6 cells [1]): 70.0%
Protection from wild type cell challenge (C6 cells [2]): no

YLEPGAVTA
% Recovery (24 hs) (C6 cells [1]): 260.0%
Protection from wild type cell challenge (C6 cells [2]): no
Percent Recovery [3]: 280%

YLEPGPATA [point mutant of …]
% Recovery (24 hs) (C6 cells [1]): 11.0%
Protection from wild type cell challenge (C6 cells [2]): yes

YLEPGPVAA [point mutant of …]
% Recovery (24 hs) (C6 cells [1]): 9.3%
Protection from wild type cell challenge (C6 cells [2]): yes

YLEPGPVKA [point mutant of …]
% Recovery (24 hs) (C6 cells [1]): 12.0%
Protection from wild type cell challenge (C6 cells [2]): yes

YLEPGPVTA [MHC Class I peptide recognized by melanoma-specific human CTL lines]
% Recovery (24 hs) (C6 cells [1]): 3.0%
Protection from wild type cell challenge (C6 cells [2]): yes
Percent Recovery [3]: 0.2%
apoptotic cells by FACS analysis (C6 cells [5]): Apoptotic cells are detectable

YLEXGXVTA (X: N-Methyl-A) (YLE[NMeA]G[NMeA]VTA) [… with prolines replaced by an N-methyl amino acid]
% Recovery (24 hs) (C6 cells [1]): 6.5%
Protection from wild type cell challenge (C6 cells [2]): yes

YLRPGPVRA [double mutant (E3 and T8) of …]
% Recovery (24 hs) (C6 cells [1]): 77.0%
Protection from wild type cell challenge (C6 cells [2]): no

YLRPGPVTA [point mutant of …]
% Recovery (C6 cells [1]; C6 cells incubated with 10^−5 M peptide 24 hours in serum-free medium, diffusion chamber): 0.3%
% Recovery (C6 cells [1]; C6 cells incubated with 10^−8 M peptide 24 hours in serum-free medium, diffusion chamber): 2.1%
% Recovery (C6 cells [1]; C6 cells incubated with 10^−10 M peptide 24 hours in serum-free medium, diffusion chamber): 4.5%
% Recovery (C6 cells [1]; C6 cells incubated with 10^−12 M peptide 24 hours in serum-free medium, diffusion chamber): 18%
Percent Recovery (C6 cells [1]; peptide 10^−5 M): 0.3%
Percent Recovery (C6 cells [1]; peptide 10^−8 M): 2.1%
Percent Recovery (C6 cells [1]; peptide 10^−10 M): 4.5%
Percent Recovery (C6 cells [1]; peptide 10^−12 M): 18%
% Recovery (24 hs) (C6 cells [1]): 3.5%
apoptosis in C6 cells and C6 cells stably transfected with the empty vector (C6 cells [1]; diffusion chamber, treated with peptide): underwent apoptosis
Protection from wild type cell challenge (C6 cells [2]): yes
Percent Recovery [3]: 3.0%
Expected Delay (C6 cells [4]; 10^−5 M peptide): 14 days
Expected Delay (C6 cells [4]; 10^−8 M peptide): 11 days
Expected Delay (C6 cells [4]; 10^−10 M peptide): 10 days
Expected Delay (C6 cells [4]; 10^−12 M peptide, days before tumors should become palpable): 8 days
Palpable Tumors (C6 cells [4]; C6 cells pre-incubated with 10^−5 M peptide): 21 days
Palpable Tumors (C6 cells [4]; C6 cells pre-incubated with 10^−8 M peptide): 15 days
Palpable Tumors (C6 cells [4]; C6 cells pre-incubated with 10^−10 M peptide): 14 days
Palpable Tumors (C6 cells [4]; C6 cells pre-incubated with 10^−12 M peptide, days after injection): 11 days
inhibition of tumorigenesis (in words) (C6 cells [4]; C6 cells pre-treated with peptide at 10^−12 to 10^−5 M, nude mice): concentration-dependent inhibition of tumorigenesis
growth of clones expressing the p35 protein in the diffusion chamber (C6/p35 cells): grew in the diffusion chamber equally well whether untreated or incubated with the synthetic peptide; also recorded: grew in the diffusion chamber equally well, whether untreated or incubated with the synthetic peptide

YMLDLQPETT [HPV-16 E711-20, MHC Class I peptide derived from Human Papilloma Virus Type 16 (HPV-16) E7 protein]
Recovery (%) (C6 cells [1]): 13%
